Results taken from the NIST ThermoML archive (doi:10.1021/je900058p).
Numbers after ± are expanded uncertainties.

Legend:
[1] = refractive index (Na D-line) (dimensionless); conditions: 293.13 K; 101.33 kPa; Liquid; Standard Abbe refractometry
[2] = Liquid; for mass density: 293.13 K, 101.33 kPa

refractive index [1]	mass density [2] [kg/m3]	vapor or sublimation pressure ([2]; 359.51 K) [kPa]	vapor or sublimation pressure ([2]; 379.52 K) [kPa]	vapor or sublimation pressure ([2]; 392.57 K) [kPa]	vapor or sublimation pressure ([2]; 400.69 K) [kPa]	vapor or sublimation pressure ([2]; 383.1 K) [kPa]	vapor or sublimation pressure ([2]; 404.24 K) [kPa]	vapor or sublimation pressure ([2]; 417.99 K) [kPa]	vapor or sublimation pressure ([2]; 426.54 K) [kPa]	vapor or sublimation pressure ([2]; 410.86 K) [kPa]	Structure (SMILES)
1.4008 ± 0.0007	811.2 ± 0.4	26.66 ± 0.27	53.33 ± 0.32	79.99 ± 0.45	101.32 ± 0.53	–	–	–	–	–	CCCCC(C)=O [2-hexanone]
1.5171 ± 0.0007	994.1 ± 0.2	–	–	–	–	26.66 ± 0.25	53.33 ± 0.3	79.99 ± 0.43	101.32 ± 0.5	–	COc1ccccc1 [anisole]
1.4098 ± 0.0007	814.5 ± 0.4	–	–	–	–	–	–	–	–	101.32 ± 1	CCCCCO [pentan-1-ol]
